Molecules are shown by their SMILES.

T1 sequence (P32305 whole entry): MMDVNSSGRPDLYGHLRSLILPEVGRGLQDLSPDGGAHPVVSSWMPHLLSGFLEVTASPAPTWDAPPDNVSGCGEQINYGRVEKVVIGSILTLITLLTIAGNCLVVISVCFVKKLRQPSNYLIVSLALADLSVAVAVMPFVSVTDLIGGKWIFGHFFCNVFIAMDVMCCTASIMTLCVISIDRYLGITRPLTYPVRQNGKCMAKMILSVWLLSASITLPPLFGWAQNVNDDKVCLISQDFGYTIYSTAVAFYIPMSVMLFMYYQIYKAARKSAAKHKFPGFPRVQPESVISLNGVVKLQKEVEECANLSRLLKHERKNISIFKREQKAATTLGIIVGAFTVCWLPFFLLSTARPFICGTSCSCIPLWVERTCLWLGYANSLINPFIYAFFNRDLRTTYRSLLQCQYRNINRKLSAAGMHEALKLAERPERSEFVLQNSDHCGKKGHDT
T2 sequence (P34969 whole entry): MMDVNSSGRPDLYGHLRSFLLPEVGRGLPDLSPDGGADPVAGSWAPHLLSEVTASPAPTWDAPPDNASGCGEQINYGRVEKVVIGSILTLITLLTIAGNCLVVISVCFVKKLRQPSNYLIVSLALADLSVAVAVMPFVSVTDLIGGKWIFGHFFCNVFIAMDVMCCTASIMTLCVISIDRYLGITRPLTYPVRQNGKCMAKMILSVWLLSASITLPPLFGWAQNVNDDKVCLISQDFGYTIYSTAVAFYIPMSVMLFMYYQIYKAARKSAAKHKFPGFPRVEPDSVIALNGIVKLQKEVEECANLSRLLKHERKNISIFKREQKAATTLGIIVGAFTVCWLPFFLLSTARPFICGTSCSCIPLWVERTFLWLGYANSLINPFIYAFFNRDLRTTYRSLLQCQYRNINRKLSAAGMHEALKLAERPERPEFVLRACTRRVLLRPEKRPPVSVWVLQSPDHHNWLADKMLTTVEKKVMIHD

One experiment has as its target T1, 5-hydroxytryptamine receptor 7 (Rattus norvegicus, UniProt P32305). As to the kind of experiment: Binding affinity towards 5-hydroxytryptamine 7 receptor.
As usually defined, the Ki is the dissociation constant of the complex between target and ligand, obtained from inhibition or displacement. In turn, `CCN(CC)C(=O)[C@@H]1C=C2c3cccc4[nH]c(Br)c(c34)C[C@H]2N(C)C1` had a Ki of 10 nM.

As for `CN1C[C@H](CNC(=O)OCc2ccccc2)C[C@@H]2c3cccc4c3c(cn4C)C[C@H]21` [METERGOLINE], the Ki was 6.31 nM.

`Cc1nc2sccn2c(=O)c1CCN1CCC(=C(c2ccc(F)cc2)c2ccc(F)cc2)CC1` [RITANSERIN] had an inhibition constant (Ki) of 15.8 nM.

`Cc1cccc(S(=O)(=O)N2CCC[C@@H]2CCN2CCC(C)CC2)c1` [SB-258741] had an inhibition constant (Ki) of 3.16 nM.

The next experiment concerns the target T2, 5-hydroxytryptamine receptor 7 (Homo sapiens, UniProt P34969). The experiment can be described thus: Binding affinity towards human recombinant 5-hydroxytryptamine 7 receptor using [3H]5-CT as radioligand.
Turning to `O=C1Nc2cccc3c2C1(CCCCN1CCN(c2ccccc2)CC1)CCC3` (stereo not drawn), the Ki was 3.16 nM.

In the case of `COc1ccccc1N1CCN(CCCCC23CCCc4cccc(c42)NC3=O)CC1` (stereo not drawn), the Ki was 5.01 nM.

Take `O=C1Nc2cccc3c2C1(CCCCN1CCC(c2ccccc2)CC1)CCC3` (stereo not drawn): the Ki is 2 nM.

As for `O=C1Nc2cccc3c2C1(CCCN1CCN(c2ccccc2)CC1)CCC3` (stereo not drawn), the Ki is 5.01 nM.

Turning to `O=C1Nc2cccc3c2C1(CCN1CCN(c2ccccc2)CC1)CCC3` (stereo not drawn), the Ki is 100 nM.

With `N#Cc1ccccc1N1CCN(CCCCC23CCCc4cccc(c42)NC3=O)CC1` (stereo not drawn), the Ki was 3.98 nM.

Turning to `O=C1Nc2cccc3c2C1(CCCCN1CCN(c2ccccn2)CC1)CCC3` (stereo not drawn), the Ki was 2 nM.

A further experiment deals with T2, 5-hydroxytryptamine receptor 7. The experiment can be described thus: Binding affinity towards cloned human 5-hydroxytryptamine 7 receptor in HEK 293 cells. It is filed as cell-based, HEK293.
`O=C1Nc2cccc3c2C1(CCCCN1CCN(C2CCCCC2)CC1)CCC3` (stereo not drawn) showed a Ki of 10000 nM.

For `C[C@H]1CCCN(CC[C@H](C)N(C)S(=O)(=O)c2cccc3ccccc23)C1`, the Ki was 10000 nM.

Another experiment has as its target T1, 5-hydroxytryptamine receptor 7. The experiment can be described thus: Binding affinity against 5-hydroxytryptamine 7 receptor using [3H]-5-CT in rat hypothalamus membranes. It is filed as cell membranes, Membrane.
Consider `CN1CCN(CCCCN2c3cccc4cccc(c34)S2(=O)=O)CC1`, for which the Ki is greater than 10000 nM.

As to `CC1CCN(CCCCCN2c3cccc4cccc(c34)S2(=O)=O)CC1`, the Ki was greater than 10000 nM.

The molecule `CC1CCN(CCCCN2c3cccc4cccc(c34)S2(=O)=O)CC1` showed a Ki greater than 10000 nM.

`COc1ccccc1N1CCN(CCCCCCN2c3cccc4cccc(c34)S2(=O)=O)CC1` had a Ki of 200 nM.

As to `O=S1(=O)c2cccc3cccc(c23)N1CCCCCN1CCN(c2ccccc2)CC1`, affinity was put at a Ki of 200 nM.

`COc1ccccc1N1CCN(CCCCN2c3cccc4cccc(c34)S2(=O)=O)CC1` showed a Ki of 200 nM.

The molecule `O=C1c2cccc3cccc(c23)N1CCCCN1CCCCC1` had a Ki greater than 10000 nM.

Regarding `CN1CCN(CCCCN2C(=O)c3cccc4cccc2c34)CC1`, the Ki was greater than 10000 nM.

Molecule `CC(C)C1CCN(CCCCN2C(=O)c3cccc4cccc2c34)CC1` showed a Ki of 200 nM.

With `COc1ccccc1N1CCN(CCCCCN2C(=O)c3cccc4cccc2c34)CC1`, the inhibitory constant (Ki) was 100 nM.

Molecule `O=S1(=O)c2cccc3cccc(c23)N1CCCCN1CCCCC1` showed a Ki greater than 10000 nM.

For `CC1CCN(CCCCN2C(=O)c3cccc4cccc2c34)CC1`, the Ki is greater than 1000 nM.

For `COc1ccccc1N1CCN(CCCCN2C(=O)c3cccc4cccc2c34)CC1`, the Ki was 63.1 nM.

`COc1ccccc1N1CCN(CCCCCN2c3cccc4cccc(c34)S2(=O)=O)CC1` had a Ki of 251 nM.

In turn, `O=C1c2cccc3cccc(c23)N1CCCCCN1CCN(c2ccccc2)CC1` [UCM-5600] gave a Ki of 79.4 nM.

The record behind these values is ChEMBL document CHEMBL1132881, “First pharmacophoric hypothesis for 5-HT7 antagonism” (Bioorg Med Chem Lett, 2000).
